Data published in patent publication US11028079B2 (ConverGene LLC, priority 2015, dated 2021).

Biological target: T1, BRD4 bromodomains (Homo sapiens, UniProt O60885)
T1 construct: fused on or other part: T7 phage capsid protein (phage-display fusion; the phage DNA is read out by qPCR)
Assay: BROMOscan bromodomain competition binding assay (DiscoveRx)
Details: Kd from 11 compound concentrations ranging from 0 to 10 μM, read-out: BROMOscan Relative Activity
Summary of the method: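 Compounds in 0.1% DMSO/0.9% MEG competed with a solid-phase acetylated peptide for T7 phage-fused BRD4 bromodomains, with the retained bromodomain measured by qPCR.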

First: Cc1noc(C)c1-c1ccc2nc(N3CCCCC3CO)nc(NCc3cccc(Cl)c3)c2c1 (centres unmarked) [Example 25, (1-(4-((3-chlorobenzyl)amino)-6-(3,5-dimethylisoxazol-4-yl)quinazolin-2-yl)piperidin-2-yl)methanol]
Second: CC(=O)N1CCN(c2nc(NCc3cccc(Cl)c3)c3cc(-c4c(C)noc4C)ccc3n2)CC1 [Example 184, 1-(4-(4-((3-chlorobenzyl)amino)-6-(3,5-dimethylisoxazol-4-yl)quinazolin-2-yl)piperazin-1-yl)ethanone]
The Kd of the first is higher: 0.5 to 5 µM for the first, under 0.5 µM for the second.

`Cc1noc(C)c1-c1ccc2nc(-c3cnn(C(C)(C)CO)c3)nc(N3CCOC[C@@H]3c3ccccc3)c2c1` [Example 304, (S)-2-(4-(6-(3,5-dimethylisoxazol-4-yl)-4-(3-phenylmorpholino)quinazolin-2-yl)-1H-pyrazol-1-yl)-2-methylpropan-1-ol] and `Cc1noc(C)c1-c1ccc2nc(-c3cnn(CC(C)(C)O)c3)nc(N3CCOC[C@H]3c3ccccc3)c2c1` [Example 263, (R)-1-(4-(6-(3,5-dimethylisoxazol-4-yl)-4-(3-phenylmorpholino)quinazolin-2-yl)-1H-pyrazol-1-yl)-2-methylpropan-2-ol] cannot be ordered by Kd: under 0.5 µM for the first, under 0.5 µM for the second.

Compared with `CN(C)CCN1CCN(c2nc(NCc3cccc(Cl)c3)c3cc(-c4ccn(C)c(=O)c4)ccc3n2)CC1` [Example 116, 4-(4-((3-chlorobenzyl)amino)-2-(4-(2-(dimethylamino)ethyl)piperazin-1-yl)quinazolin-6-yl)-1-methylpyridin-2(1H)-one], `C[C@H](O)CN1CCN(c2nc(NCc3cccc(Cl)c3)c3cc(-c4ccc(=O)n(C)c4)ccc3n2)CC1` [Example 111, (S)-5-(4-((3-chlorobenzyl)amino)-2-(4-(2-hydroxypropyl)piperazin-1-yl)quinazolin-6-yl)-1-methylpyridin-2(1H)-one] is lower in Kd: over 5 µM for the first, under 0.5 µM for the second. The second binds more tightly here.

`Cc1noc(C)c1-c1ccc2c(NCc3cccc(Cl)c3)nc(Cl)nc2c1` [Example 38, 2-chloro-N-(3-chlorobenzyl)-7-(3,5-dimethylisoxazol-4-yl)quinazolin-4-amine] and `CNc1nc(NCc2cccc(Cl)c2)c2cc(-c3c(C)noc3C)ccc2n1` [Example 5, N4-(3-chlorobenzyl)-6-(3,5-dimethylisoxazol-4-yl)-N2-methylquinazoline-2,4-diamine] fall in the same range of Kd: 0.5 to 5 µM for the first, 0.5 to 5 µM for the second.

First: Cc1noc(C)c1-c1ccc2nc(N3CCC(C)(C#N)CC3)nc(NCc3cccc(Cl)c3)c2c1 [Example 156, 1-(4-((3-chlorobenzyl)amino)-6-(3,5-dimethylisoxazol-4-yl)quinazolin-2-yl)-4-methylpiperidine-4-carbonitrile]
Second: Cc1noc(C)c1-c1ccc2nc(N3CCN(CCN(C)C)CC3)nc(NCc3cccc(F)c3)c2c1 [Example 77, 2-(4-(2-(dimethylamino)ethyl)piperazin-1-yl)-6-(3,5-dimethylisoxazol-4-yl)-N-(3-fluorobenzyl)quinazolin-4-amine]
The Kd of the first is higher: 0.5 to 5 µM for the first, under 0.5 µM for the second. The second binds more tightly here.

`Cc1noc(C)c1-c1ccc2nc(-c3cnn(CCC#N)c3)nc(NCc3cccc(Cl)c3)c2c1` [Example 57, 3-(4-(4-((3-chlorobenzyl)amino)-6-(3,5-dimethylisoxazol-4-yl)quinazolin-2-yl)-1H-pyrazol-1-yl)propanenitrile] and `COCCn1cc(-c2nc(NCc3cccc(Cl)c3)c3cc(-c4c(C)noc4C)ccc3n2)cn1` [Example 58, N-(3-chlorobenzyl)-6-(3,5-dimethylisoxazol-4-yl)-2-(1-(2-methoxyethyl)-1H-pyrazol-4-yl)quinazolin-4-amine] cannot be ordered by Kd: under 0.5 µM for the first, under 0.5 µM for the second.

`Cc1noc(C)c1-c1ccc2nc(-c3cnn(CC(C)(C)O)c3)nc(NC3(c4cccc(Cl)c4)CC3)c2c1` [Example 182, 1-(4-(4-((1-(3-chlorophenyl)cyclopropyl)amino)-6-(3,5-dimethylisoxazol-4-yl)quinazolin-2-yl)-1H-pyrazol-1-yl)-2-methylpropan-2-ol] and `Cc1noc(C)c1-c1ccc2nc(-c3cnn(C(C)(C)CO)c3)nc(NCc3cccc(Cl)c3)c2c1` [Example 62, 2-(4-(4-((3-chlorobenzyl)amino)-6-(3,5-dimethylisoxazol-4-yl)quinazolin-2-yl)-1H-pyrazol-1-yl)-2-methylpropan-1-ol] cannot be ordered by Kd: under 0.5 µM for the first, under 0.5 µM for the second.

First: Cc1noc(C)c1-c1ccc2nc(NCc3ccc(Cl)cc3)nc(NCc3cccc(Cl)c3)c2c1 [Example 167, N4-(3-chlorobenzyl)-N2-(4-chlorobenzyl)-6-(3,5-dimethylisoxazol-4-yl)quinazoline-2,4-diamine]
Second: Cc1noc(C)c1-c1ccc2nc(C(=O)NCc3cc(Cl)ccn3)nc(NCc3cccc(Cl)c3)c2c1 [Example 188, 4-((3-chlorobenzyl)amino)-N-((4-chloropyridin-2-yl)methyl)-6-(3,5-dimethylisoxazol-4-yl)quinazoline-2-carboxamide]
The Kd of the first is higher: over 5 µM for the first, under 0.5 µM for the second.

First: Cc1noc(C)c1-c1ccc2nc(N3CCN(CCN(C)C)CC3)nc(N[C@H](CO)c3ccccc3)c2c1 [Example 173, (S)-2-((2-(4-(2-(dimethylamino)ethyl)piperazin-1-yl)-6-(3,5-dimethylisoxazol-4-yl)quinazolin-4-yl)amino)-2-phenylethanol]
Second: Cc1noc(C)c1-c1ccc2nc(N3CCN(CCN(C)C)CC3)nc(Nc3ccc(Cl)cc3)c2c1 [Example 162, N-(4-chlorophenyl)-2-(4-(2-(dimethylamino)ethyl)piperazin-1-yl)-6-(3,5-dimethylisoxazol-4-yl)quinazolin-4-amine]
The Kd of the first is lower: under 0.5 µM for the first, 0.5 to 5 µM for the second. The first binds more tightly here.

`Cc1noc(C)c1-c1ccc2nc(C(=O)NC3CS(=O)(=O)C3)nc(N3CCOC[C@@H]3c3ccccc3)c2c1` [Example 315, (S)-6-(3,5-dimethylisoxazol-4-yl)-N-(1,1-dioxidothietan-3-yl)-4-(3-phenylmorpholino)quinazoline-2-carboxamide] and `Cc1noc(C)c1-c1ccc2nc(N3CCN(C[C@H](C)O)CC3)nc(N3CCOC[C@@H]3c3ccccc3)c2c1` [Example 308, (S)-1-(4-(6-(3,5-dimethylisoxazol-4-yl)-4-((S)-3-phenylmorpholino)quinazolin-2-yl)piperazin-1-yl)propan-2-ol] cannot be ordered by Kd: under 0.5 µM for the first, under 0.5 µM for the second.

First: Cc1noc(C)c1-c1ccc2nc(C(=O)N3CCc4[nH]ncc4C3)cc(NCc3cccc(Cl)c3)c2c1 [Example 288, (4-((3-chlorobenzyl)amino)-6-(3,5-dimethylisoxazol-4-yl)quinolin-2-yl)(1,4,6,7-tetrahydro-5H-pyrazolo[4,3-c]pyridin-5-yl)methanone]
Second: Cc1noc(C)c1-c1ccc2nc(C(=O)NCC3CN(C)C3)cc(NCc3cccc(Cl)c3)c2c1 [Example 231, 4-((3-chlorobenzyl)amino)-6-(3,5-dimethylisoxazol-4-yl)-N-((1-methylazetidin-3-yl)methyl)quinoline-2-carboxamide]
The Kd of the first is higher: 0.5 to 5 µM for the first, under 0.5 µM for the second. The second binds more tightly here.

First: Cc1noc(C)c1-c1ccc2nc(C(=O)Nc3ccc(Cl)nc3)nc(NCc3cccc(Cl)c3)c2c1 [Example 222, 4-((3-chlorobenzyl)amino)-N-(6-chloropyridin-3-yl)-6-(3,5-dimethylisoxazol-4-yl)quinazoline-2-carboxamide]
Second: Cc1nc(CNC(=O)c2nc(NCc3cccc(Cl)c3)c3cc(-c4c(C)noc4C)ccc3n2)cs1 [Example 196, 4-((3-chlorobenzyl)amino)-6-(3,5-dimethylisoxazol-4-yl)-N-((2-methylthiazol-4-yl)methyl)quinazoline-2-carboxamide]
The Kd of the first is higher: over 5 µM for the first, under 0.5 µM for the second. The second binds more tightly here.

`Cn1cc(-c2ccc3nc(-c4cnn(CCC#N)c4)nc(NCc4cccc(Cl)c4)c3c2)ccc1=O` [Example 104, 3-(4-(4-((3-chlorobenzyl)amino)-6-(1-methyl-6-oxo-1,6-dihydropyridin-3-yl)quinazolin-2-yl)-1H-pyrazol-1-yl)propanenitrile] and `Cn1cc(-c2ccc3nc(-c4cnn(CC(N)=O)c4)nc(NCc4cccc(Cl)c4)c3c2)ccc1=O` [Example 101, 2-(4-(4-((3-chlorobenzyl)amino)-6-(1-methyl-6-oxo-1,6-dihydropyridin-3-yl)quinazolin-2-yl)-1H-pyrazol-1-yl)acetamide] cannot be ordered by Kd: under 0.5 µM for the first, under 0.5 µM for the second.

First: Cc1cc(NCc2cccc(Cl)c2)c2cc(-c3c(C)noc3C)ccc2n1 [Example 4, N-(3-chlorobenzyl)-6-(3,5-dimethylisoxazol-4-yl)-2-methylquinolin-4-amine]
Second: Cc1nn(C)cc1CNC(=O)c1nc(NCc2cccc(Cl)c2)c2cc(-c3c(C)noc3C)ccc2n1 [Example 205, 4-((3-chlorobenzyl)amino)-N-((1,3-dimethyl-1H-pyrazol-4-yl)methyl)-6-(3,5-dimethylisoxazol-4-yl)quinazoline-2-carboxamide]
The Kd of the first is higher: 0.5 to 5 µM for the first, under 0.5 µM for the second.

First: Cc1noc(C)c1-c1ccc2nc(N3CCN(C(=O)CN)CC3)nc(NCc3cncc(Cl)c3)c2c1 [Example 131, 2-amino-1-(4-(4-(((5-chloropyridin-3-yl)methyl)amino)-6-(3,5-dimethylisoxazol-4-yl)quinazolin-2-yl)piperazin-1-yl)ethanone]
Second: Cn1cc(-c2ccc3nc(Cl)nc(NCc4cncc(Cl)c4)c3c2)ccc1=O [Example 113, 5-(2-chloro-4-(((5-chloropyridin-3-yl)methyl)amino)quinazolin-6-yl)-1-methylpyridin-2(1H)-one]
The Kd of the first is lower: under 0.5 µM for the first, over 5 µM for the second.

First: Cc1noc(C)c1-c1ccc2nc(C(=O)NC3CCOCC3)nc(NC3(c4cccc(Cl)c4)CC3)c2c1 [Example 247, 4-((1-(3-chlorophenyl)cyclopropyl)amino)-6-(3,5-dimethylisoxazol-4-yl)-N-(tetrahydro-2H-pyran-4-yl)quinazoline-2-carboxamide]
Second: Cn1cc(-c2ccc3nc(-c4cnn(CC(N)=O)c4)nc(NCc4cncc(Cl)c4)c3c2)ccc1=O [Example 145, 2-(4-(4-(((5-chloropyridin-3-yl)methyl)amino)-6-(1-methyl-6-oxo-1,6-dihydropyridin-3-yl)quinazolin-2-yl)-1H-pyrazol-1-yl)acetamide]
The Kd of the first is lower: under 0.5 µM for the first, 0.5 to 5 µM for the second.
